# Assay results: article PMC11784026, “Phase 1 study of the safety, tolerability, and pharmacokinetics of a synthetic macrocyclic peptide antibiotic (BRII-693) in healthy adult participants” (Antimicrobial Agents and Chemotherapy, 2024)
# Read-outs that look alike come from different tables or passages of the source. Where a SMILES comes first, the peptide text is derived from it. Bridges are numbered along the chain shown (N, C = ends). [ ]: non-standard residue; d: D form. The star is where a group is joined. X1 = O=C(c1ccc(Cl)cc1Cl)*; Dab = NCC[C@H](N)C(=O)O; Abu = CC[C@H](N)C(=O)O; Dap = NC[C@H](N)C(=O)O
# Test: Plasma pharmacokinetics after multiple ascending doses (MAD), phase 1
# Assay type: in vivo, human (healthy adult participants)
# Details: for Vd: read-out: VZ
# Description: Participants were discharged on day 11.
# Plasma and urine PK parameters were summarized for each cohort using descriptive statistics. Analyses using linear models were performed to assess dose proportionality (both single-dose cohorts 1–7 and multiple-dose cohorts 8–10). Dose-linearity of Cmax and AUC across the dose range was assessed by fitting the power model with ln-transformed parameter as response variables and ln-transformed dose (continuous variable) as a fixed effect. For each PK parameter and study phase (SAD or MAD) separately, a pooled estimate (across all dose cohorts) of slope, corresponding 95% confidence interval (CI), and between-subject coefficient of variation (CV) were calculated. Dose proportionality was to be concluded if the 95% CI for the slope spans 1. […] Least square means (LSMs) and difference in LSMs with 90% CI were calculated; these values were then back exponentiated to give the geometric LSM, geometric mean ratio, and 90% CI.
# [1] = human, plasma, iv, 100 mg, First q6h dose (day 3), 7-day MAD 100 mg q6h × 7, n = 3, arithmetic mean ± SD
# [2] = human, plasma, iv, 100 mg, Last q6h dose (day 9), 7-day MAD 100 mg q6h × 7, n = 6, arithmetic mean ± SD
# [3] = human, plasma, iv, 150 mg, First q6h dose (day 1), 14-day MAD 150 mg q6h × 14, Chinese, n = 10, arithmetic mean ± SD
# [4] = human, plasma, iv, 150 mg, First q6h dose (day 1), 14-day MAD 150 mg q6h × 14, non-Chinese, n = 10, arithmetic mean ± SD
# [5] = human, plasma, iv, 150 mg, First q6h dose (day 3), 7-day MAD 150 mg q6h × 7, n = 5, arithmetic mean ± SD
# [6] = human, plasma, iv, 150 mg, Last q6h dose (day 9), 7-day MAD 150 mg q6h × 7, n = 5, arithmetic mean ± SD
# [7] = human, plasma, iv, 150 mg, Last q6h dose (day 14), 14-day MAD 150 mg q6h × 14, Chinese, n = 6, arithmetic mean ± SD
# [8] = human, plasma, iv, 150 mg, Last q6h dose (day 14), 14-day MAD 150 mg q6h × 14, non-Chinese, n = 10, arithmetic mean ± SD
# [9] = human, plasma, iv, 200 mg, First q6h dose (day 3), 7-day MAD 200 mg q6h × 7, n = 4, arithmetic mean ± SD
# [10] = human, plasma, iv, 200 mg, Last q6h dose (day 9), 7-day MAD 200 mg q6h × 7, n = 5, arithmetic mean ± SD
compound,measurement,setting,value
CC[C@@H]1NC(=O)[C@@H](CC(C)C)NC(=O)[C@H](CCN)NC(=O)[C@@H](NC(=O)[C@H](CN)NC(=O)[C@@H](NC(=O)[C@H](CCN)NC(=O)c2ccc(Cl)cc2Cl)[C@@H](C)O)CCNC(=O)[C@H]([C@@H](C)O)NC(=O)[C@H](CCN)NC(=O)[C@H](CCN)NC1=O [BRII-693] (X1-[Dab]T[Dap][Dab][Dab][dL][Abu][Dab][Dab]T; lactam 4-C; N-terminus assumed),Tmax,"First q6h dose (day 1), 14-day MAD 150 mg q6h × 14, Chinese, n = 10, median (range)","1.08 (1.02, 1.12) h"
same,Tmax,"First q6h dose (day 1), 14-day MAD 150 mg q6h × 14, non-Chinese, n = 10, median (range)","1.07 (1.03, 1.25) h"
same,Tmax,"First q6h dose (day 3), 7-day MAD 100 mg q6h × 7, n = 6, median (range)","1.13 (1.08, 1.25) h"
same,t1/2,"First q6h dose (day 3), 7-day MAD 150 mg q6h × 7, n = 5, arithmetic mean ± SD",2.40 ± 0.21 h
same,Tmax,"First q6h dose (day 3), 7-day MAD 150 mg q6h × 7, n = 5, median (range)","1.07 (1.02, 1.15) h"
same,ARAUC (accumulation ratio based on AUC),"Last q6h dose (day 9), 7-day MAD 100 mg q6h × 7, n = 6, arithmetic mean ± SD",1.59 ± 0.14
same,ARAUC (accumulation ratio based on AUC),"Last q6h dose (day 9), 7-day MAD 150 mg q6h × 7, n = 5, arithmetic mean ± SD",1.48 ± 0.10
same,ARAUC (accumulation ratio based on AUC),"Last q6h dose (day 9), 7-day MAD 200 mg q6h × 7, n = 5, arithmetic mean ± SD",1.69 ± 0.34
same,ARAUC (accumulation ratio based on AUC),"Last q6h dose (day 14), 14-day MAD 150 mg q6h × 14, Chinese, n = 6, arithmetic mean ± SD",1.58 ± 0.19
same,Tmax,"Last q6h dose (day 14), 14-day MAD 150 mg q6h × 14, Chinese, n = 6, median (range)","1.07 (1.05, 1.22) h"
same,ARAUC (accumulation ratio based on AUC),"Last q6h dose (day 14), 14-day MAD 150 mg q6h × 14, non-Chinese, n = 10, arithmetic mean ± SD",1.58 ± 0.17
same,Tmax,"Last q6h dose (day 14), 14-day MAD 150 mg q6h × 14, non-Chinese, n = 10, median (range)","1.07 (1.02, 1.10) h"
same,"Geometric mean ratio for AUC0-6h, Chinese vs non-Chinese","after the first dose on day 1, 150 mg q6h × 14, 90% CI: 0.966, 1.20",1.08
same,"Geometric mean ratio for Cmax, Chinese vs non-Chinese","after the first dose on day 1, 150 mg q6h × 14, 90% CI: 0.970, 1.24",1.10
same,"Geometric mean ratio for AUC0-6h, Chinese vs non-Chinese","after the last dose on Day 14, 150 mg q6h × 14, 90% CI 0.926, 1.25",1.08
same,"Geometric mean ratio for Cmax, Chinese vs non-Chinese","after the last dose on Day 14, 150 mg q6h × 14, 90% CI 0.935, 1.20",1.06
same,Cmax,"human, plasma, iv, 100 mg, First q6h dose (day 3), 7-day MAD 100 mg q6h × 7, 1-h IV infusion, plasma, n = 6, arithmetic mean ± SD",5960 ± 710 ng/mL
same,clearance,[1],80.5 mL/min
same,Vd,[1],17.1 ± 2.72 L
same,half-life,"human, plasma, iv, 100 mg, First q6h dose (day 3), 7-day MAD 100 mg q6h × 7, n = 6, arithmetic mean ± SD",2.88 ± 0.5 h
same,AUC(0-t),"human, plasma, iv, 100 mg, First q6h dose (day 3), 7-day MAD 100 mg q6h × 7, n = 6, arithmetic mean ± SD, read-out: AUC0-6h",18000 ± 2380 ng·h/mL
same,clearance,[2],59.5 mL/min
same,half-life,[2],7.58 ± 1.72 h
same,AUC(0-t),"human, plasma, iv, 100 mg, Last q6h dose (day 9), 7-day MAD 100 mg q6h × 7, n = 6, arithmetic mean ± SD, read-out: AUC0–6h",28600 ± 4480 ng·h/mL
same,Vd,[2],38.4 ± 8.18 L
same,Tmax,"human, plasma, iv, 100 mg, Last q6h dose (day 9), 7-day MAD 100 mg q6h × 7, n = 6, median (range), read-out: Tmax",1.18 h
same,Cmax,"human, plasma, iv, 100 mg, Last q6h dose (day 9), 7-day MAD 100 mg q6h × 7, plasma, n = 6, arithmetic mean ± SD",8120 ± 1000 ng/mL
same,clearance,[3],77.7 mL/min
same,half-life,[3],2.15 ± 0.28 h
same,AUC(0-t),"human, plasma, iv, 150 mg, First q6h dose (day 1), 14-day MAD 150 mg q6h × 14, Chinese, n = 10, arithmetic mean ± SD, read-out: AUC0-6h",27300 ± 4140 ng·h/mL
same,Vd,[3],14.4 ± 2.93 L
same,Cmax,"human, plasma, iv, 150 mg, First q6h dose (day 1), 14-day MAD 150 mg q6h × 14, Chinese, plasma, n = 10, arithmetic mean ± SD",10200 ± 1890 ng/mL
same,clearance,[4],80 mL/min
same,half-life,[4],2.42 ± 0.29 h
same,AUC(0-t),"human, plasma, iv, 150 mg, First q6h dose (day 1), 14-day MAD 150 mg q6h × 14, non-Chinese, n = 10, arithmetic mean ± SD, read-out: AUC0-6h",25200 ± 2860 ng·h/mL
same,Vd,[4],16.7 ± 2.57 L
same,Cmax,"human, plasma, iv, 150 mg, First q6h dose (day 1), 14-day MAD 150 mg q6h × 14, non-Chinese, plasma, n = 10, arithmetic mean ± SD",9200 ± 1050 ng/mL
same,Cmax,"human, plasma, iv, 150 mg, First q6h dose (day 3), 7-day MAD 150 mg q6h × 7, 1-h IV infusion, plasma, n = 5, arithmetic mean ± SD",8690 ± 1240 ng/mL
same,clearance,[5],82.3 mL/min
same,AUC(0-t),"human, plasma, iv, 150 mg, First q6h dose (day 3), 7-day MAD 150 mg q6h × 7, n = 5, arithmetic mean ± SD, read-out: AUC0-6h",24800 ± 3450 ng·h/mL
same,Vd,[5],17.2 ± 3.33 L
same,clearance,[6],69.2 mL/min
same,half-life,[6],6.76 ± 0.35 h
same,AUC(0-t),"human, plasma, iv, 150 mg, Last q6h dose (day 9), 7-day MAD 150 mg q6h × 7, n = 5, arithmetic mean ± SD, read-out: AUC0–6h",36600 ± 4360 ng·h/mL
same,Vd,[6],40.9 ± 9.47 L
same,Tmax,"human, plasma, iv, 150 mg, Last q6h dose (day 9), 7-day MAD 150 mg q6h × 7, n = 5, median (range), read-out: Tmax",1.07 h
same,Cmax,"human, plasma, iv, 150 mg, Last q6h dose (day 9), 7-day MAD 150 mg q6h × 7, plasma, n = 5, arithmetic mean ± SD",11700 ± 1540 ng/mL
same,clearance,[7],59.5 mL/min
same,half-life,[7],12.4 ± 6.92 h
same,AUC(0-t),"human, plasma, iv, 150 mg, Last q6h dose (day 14), 14-day MAD 150 mg q6h × 14, Chinese, n = 6, arithmetic mean ± SD, read-out: AUC0–6h",42500 ± 4960 ng·h/mL
same,Vd,[7],61.9 ± 30.2 L
same,Cmax,"human, plasma, iv, 150 mg, Last q6h dose (day 14), 14-day MAD 150 mg q6h × 14, Chinese, plasma, n = 6, arithmetic mean ± SD",13300 ± 1500 ng/mL
same,clearance,[8],64.7 mL/min
same,half-life,[8],15.6 ± 11.7 h
same,AUC(0-t),"human, plasma, iv, 150 mg, Last q6h dose (day 14), 14-day MAD 150 mg q6h × 14, non-Chinese, n = 10, arithmetic mean ± SD, read-out: AUC0–6h",39900 ± 7150 ng·h/mL
same,Vd,[8],81.4 ± 55.6 L
same,Cmax,"human, plasma, iv, 150 mg, Last q6h dose (day 14), 14-day MAD 150 mg q6h × 14, non-Chinese, plasma, n = 10, arithmetic mean ± SD",12700 ± 1780 ng/mL
same,Cmax,"human, plasma, iv, 200 mg, First q6h dose (day 3), 7-day MAD 200 mg q6h × 7, 1-h IV infusion, plasma, n = 5, arithmetic mean ± SD",13500 ± 4430 ng/mL
same,clearance,[9],76.3 mL/min
same,Vd,[9],15.7 ± 5.81 L
same,half-life,"human, plasma, iv, 200 mg, First q6h dose (day 3), 7-day MAD 200 mg q6h × 7, n = 5, arithmetic mean ± SD",2.49 ± 0.51 h
same,AUC(0-t),"human, plasma, iv, 200 mg, First q6h dose (day 3), 7-day MAD 200 mg q6h × 7, n = 5, arithmetic mean ± SD, read-out: AUC0-6h",36800 ± 10100 ng·h/mL
same,Tmax,"human, plasma, iv, 200 mg, First q6h dose (day 3), 7-day MAD 200 mg q6h × 7, n = 5, median (range), read-out: Tmax",1.08 h
same,clearance,[10],57.8 mL/min
same,half-life,[10],7.58 ± 0.93 h
same,AUC(0-t),"human, plasma, iv, 200 mg, Last q6h dose (day 9), 7-day MAD 200 mg q6h × 7, n = 5, arithmetic mean ± SD, read-out: AUC0–6h",61300 ± 15700 ng·h/mL
